14 molecules from patent US12187709B2 (Genentech, Inc., priority 2021, dated 2025) can be followed below.

Each structure is given as a SMILES string.

One assay deals with c-Cbl (Homo sapiens (Human), UniProt P22681). Kind of assay: C-Cbl LCK Ub TR-FRET assay (C-cbl Lck HTRF). Format: biochemical. A digest of the protocol:
(§1)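 Detection reagents added, brief spin, 20 min RT. IC50 fit normalized to no-LCK (low) and DMSO (high) controls.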
(In general: Time-resolved FRET reads energy transfer from a long-lived donor to a nearby acceptor.)

For assay [1], the target named is Human Cbl-b (residues 40-426) (Homo sapiens (Human), UniProt Q13191). Kind of assay: Cbl-b SPR assay. Type of assay: binding. The conditions noted are these: for Fold of selectivity: C-cbl SPR Kd vs Cbl-b SPR Kd; for Kd: SPR, 20° C. The method, boiled down: (§2)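 Binding was measured by SPR and fitted to a 1:1 model from multi-cycle kinetics with double referencing, 6 concentrations in 2-fold dilution. Alternatively, single-cycle titrations up to 500 nM (120 s contact) were fitted with kd fixed from a single-exponential fit of chaser-measured % compound bound versus time.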

In a further assay the target is Cbl-b (Homo sapiens (Human), UniProt Q13191). The assay is described as follows: Cbl-b LCK Ub TR-FRET assay (Cbl-b Lck HTRF). Type of assay: biochemical. The conditions noted are these: for IC50: Cbl-b LCK Ub TR-FRET; for fold-selectivity (Cbl-b over C-cbl): ratio C-cbl Lck HTRF IC50 / Cbl-b Lck HTRF IC50. The method, boiled down: as §1
The target of a further assay is c-Cbl (residues 47-435) (Homo sapiens (Human), UniProt P22681). The assay is described as follows: c-Cbl SPR assay. Format: binding. To be noted: 20° C. The method, boiled down: as §2
(In general: SPR reads the build-up and loss of mass on a sensor chip optically.)

As a reminder, the IC50 is the midpoint of a concentration-inhibition curve. One may read the Kd as a measure of binding affinity in units of concentration. A lower Kd goes with tighter binding.

c-Cbl, sequence (P22681 47-435): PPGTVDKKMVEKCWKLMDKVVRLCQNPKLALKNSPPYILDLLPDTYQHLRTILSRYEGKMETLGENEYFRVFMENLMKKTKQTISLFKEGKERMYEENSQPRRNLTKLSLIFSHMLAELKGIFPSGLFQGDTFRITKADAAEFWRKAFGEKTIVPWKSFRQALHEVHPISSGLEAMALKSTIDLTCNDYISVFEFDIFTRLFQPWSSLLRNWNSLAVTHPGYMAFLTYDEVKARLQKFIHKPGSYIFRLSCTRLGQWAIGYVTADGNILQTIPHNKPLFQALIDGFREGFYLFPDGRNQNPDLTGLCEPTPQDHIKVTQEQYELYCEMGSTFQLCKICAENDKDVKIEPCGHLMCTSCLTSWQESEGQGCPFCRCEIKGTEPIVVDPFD
c-Cbl (residues 47-435), sequence (P22681 47-435): as above
Cbl-b, sequence (Q13191 40-426): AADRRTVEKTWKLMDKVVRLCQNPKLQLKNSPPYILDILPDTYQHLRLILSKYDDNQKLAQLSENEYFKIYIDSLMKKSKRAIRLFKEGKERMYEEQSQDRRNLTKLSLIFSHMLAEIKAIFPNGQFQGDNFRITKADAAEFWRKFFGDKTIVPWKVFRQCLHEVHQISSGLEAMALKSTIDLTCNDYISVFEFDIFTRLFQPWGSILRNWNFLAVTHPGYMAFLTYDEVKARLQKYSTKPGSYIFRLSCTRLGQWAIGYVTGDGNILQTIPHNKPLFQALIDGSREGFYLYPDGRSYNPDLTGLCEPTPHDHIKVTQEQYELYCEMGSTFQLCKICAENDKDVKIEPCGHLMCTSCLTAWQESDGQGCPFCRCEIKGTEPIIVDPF
Human Cbl-b (residues 40-426), sequence (Q13191 40-426): as above

For the molecule `CCNc1cc(N2Cc3c(cc(CNC4(C)CCC4)cc3C(F)(F)F)C2=O)cc([C@]2(c3nncn3C)C[C@@H](OC)C2)c1` [Compound 227, 2-(3-(ethylamino)-5-((1s,3s)-3-methoxy-1-(4-methyl-4H-1,2,4-triazol-3-yl)cyclobutyl)phenyl)-6-(((1-methylcyclobutyl)amino)methyl)-4-(trifluoromethyl)isoindolin-1-one], the results for the IC50 at c-Cbl and at Cbl-b were 16 nM and 10 nM, respectively. The Fold of selectivity in assay [1] was 6.5×. In addition, the Kd in assay [1] was 1.7 nM; on c-Cbl (residues 47-435), 11 nM. In addition, the “fold-selectivity (Cbl-b over C-cbl)” value on Cbl-b was determined as 1.6x.
The molecule `COC1CC2(C1)CC(c1cccc(N3Cc4c(cc(CNC5(C)CCC5)cc4C(F)(F)F)C3=O)c1)(c1nncn1C)C2` (stereo not drawn) [Compound 229, 2-(3-(6-methoxy-2-(4-methyl-4H-1,2,4-triazol-3-yl)spiro[3.3]heptan-2-yl)phenyl)-6-(((1-methylcyclobutyl)amino)methyl)-4-(trifluoromethyl)isoindolin-1-one] displayed an IC50 against c-Cbl of 1400 nM. In assay [1], the Fold of selectivity worked out at 7.0× and the Kd was 110 nM. On Cbl-b, half-maximal inhibition (IC50) was put at 230 nM and the “fold-selectivity (Cbl-b over C-cbl)” value is 5.9x. The same molecule yielded a Kd at c-Cbl (residues 47-435) of 760 nM.
`CO[C@H]1C[C@](c2cc(C)cc(N3Cc4c(cc(CNC5(C)CCC5)cc4C(F)(F)F)C3=O)c2)(c2nncn2C)C1` [Compound 230, 2-(3-((1r,3r)-3-methoxy-1-(4-methyl-4H-1,2,4-triazol-3-yl)cyclobutyl)-5-methylphenyl)-6-(((1-methylcyclobutyl)amino)methyl)-4-(trifluoromethyl)isoindolin-1-one]: half-maximal inhibition at c-Cbl (IC50) required 290 nM. In assay [1], the Fold of selectivity is listed as 2.3× and binding was characterised by a dissociation constant (Kd) of 75 nM. Further, on Cbl-b, 190 nM corresponded to half-maximal inhibition (IC50) and the “fold-selectivity (Cbl-b over C-cbl)” value is given as 1.5x. Also, at c-Cbl (residues 47-435), the Kd was 170 nM.
With `CO[C@H]1C[C@@](c2cc(NC3CC3)cc(N3Cc4c(cc(CNC5(C)CCC5)cc4C(F)(F)F)C3=O)c2)(c2nncn2C)C1` [Compound 231, 2-(3-(cyclopropylamino)-5-((1s,3s)-3-methoxy-1-(4-methyl-4H-1,2,4-triazol-3-yl)cyclobutyl)phenyl)-6-(((1-methylcyclobutyl)amino)methyl)-4-(trifluoromethyl)isoindolin-1-one], the IC50 against c-Cbl was found to be 17 nM. For the same molecule, in assay [1], the Fold of selectivity was 5.4× and the Kd amounted to 1.5 nM. At Cbl-b, inhibition was half-maximal at 11 nM (IC50) and the “fold-selectivity (Cbl-b over C-cbl)” value worked out at 1.5x. The Kd at c-Cbl (residues 47-435) came to 8.1 nM.
`C=CCNc1cc(N2Cc3c(cc(CNC4(C)CCC4)cc3C(F)(F)F)C2=O)cc([C@]2(c3nncn3C)C[C@H](OC)C2)c1` [Compound 232, 2-(3-(allylamino)-5-((1r,3r)-3-methoxy-1-(4-methyl-4H-1,2,4-triazol-3-yl)cyclobutyl)phenyl)-6-(((1-methylcyclobutyl)amino)methyl)-4-(trifluoromethyl)isoindolin-1-one] yielded an IC50 on c-Cbl of 35 nM. Besides, in assay [1], the Fold of selectivity is 9.2× and the Kd amounted to 1.4 nM. Moreover, at Cbl-b, half-maximal inhibition (IC50) was put at 13 nM and the “fold-selectivity (Cbl-b over C-cbl)” value is listed as 2.6x. On c-Cbl (residues 47-435), this molecule displayed a Kd of 13 nM.
As to `CO[C@H]1C[C@](c2cc(NC3COC3)cc(N3Cc4c(cc(CNC5(C)CCC5)cc4C(F)(F)F)C3=O)c2)(c2nncn2C)C1` [Compound 234, 2-(3-((1r,3r)-3-methoxy-1-(4-methyl-4H-1,2,4-triazol-3-yl)cyclobutyl)-5-(oxetan-3-ylamino)phenyl)-6-(((1-methylcyclobutyl)amino)methyl)-4-(trifluoromethyl)isoindolin-1-one], the values for the IC50 at c-Cbl and against Cbl-b were 140 nM and 25 nM, respectively. The Fold of selectivity in assay [1] was found to be 10×. The Kd in assay [1] is 7.4 nM; at c-Cbl (residues 47-435), 76 nM. The “fold-selectivity (Cbl-b over C-cbl)” value on Cbl-b is given as 5.6x.
On c-Cbl, `CCc1cc(N2Cc3c(cc(CNC4(C)CCC4)cc3C(F)(F)F)C2=O)cc([C@]2(c3nncn3C)C[C@@H](OC)C2)c1` [Compound 235, 2-(3-ethyl-5-((1s,3s)-3-methoxy-1-(4-methyl-4H-1,2,4-triazol-3-yl)cyclobutyl)phenyl)-6-(((1-methylcyclobutyl)amino)methyl)-4-(trifluoromethyl)isoindolin-1-one] had an IC50 of 110 nM. Also, in assay [1], the Fold of selectivity came to 2.9× and the Kd came out at 36 nM. In addition, on Cbl-b, half-maximal inhibition (IC50) was put at 78 nM and the “fold-selectivity (Cbl-b over C-cbl)” value is 1.4x. The molecule further registered a Kd on c-Cbl (residues 47-435) of 110 nM.
Regarding `CCc1cc(N2Cc3c(cc(CNC4(C)CCC4)cc3C(F)(F)F)C2=O)cc([C@]2(c3nncn3C)C[C@H](OC)C2)c1` [Compound 236, 2-(3-ethyl-5-((1r,3r)-3-methoxy-1-(4-methyl-4H-1,2,4-triazol-3-yl)cyclobutyl)phenyl)-6-(((1-methylcyclobutyl)amino)methyl)-4-(trifluoromethyl)isoindolin-1-one], at c-Cbl, inhibition was half-maximal at 65 nM (IC50). Further, in assay [1], the Fold of selectivity was 2.5× and binding was put at a Kd of 19 nM. On Cbl-b, the IC50 was determined as 38 nM and the “fold-selectivity (Cbl-b over C-cbl)” value was 1.7x. The molecule also registered a Kd at c-Cbl (residues 47-435) of 47 nM.
`CNc1cc(N2Cc3c(cc(CNC4(C)CCC4)cc3C(F)(F)F)C2=O)cc([C@]2(c3nncn3C)C[C@@H](OC)C2)c1` [Compound 238, 2-(3-((1s,3s)-3-methoxy-1-(4-methyl-4H-1,2,4-triazol-3-yl)cyclobutyl)-5-(methylamino)phenyl)-6-(((1-methylcyclobutyl)amino)methyl)-4-(trifluoromethyl)isoindolin-1-one]: the IC50 at c-Cbl is 14 nM. In assay [1], the Fold of selectivity was determined as 2.6× and the Kd worked out at 2.2 nM. At Cbl-b, the IC50 was 12 nM and the “fold-selectivity (Cbl-b over C-cbl)” value is on record as 1.1x. Besides, the Kd at c-Cbl (residues 47-435) was determined as 5.8 nM.
Consider `CNc1cc(N2Cc3c(cc(CNC4(C)CCC4)cc3C(F)(F)F)C2=O)cc([C@]2(c3nncn3C)C[C@H](OC)C2)c1` [Compound 239, 2-(3-((1r,3r)-3-methoxy-1-(4-methyl-4H-1,2,4-triazol-3-yl)cyclobutyl)-5-(methylamino)phenyl)-6-(((1-methylcyclobutyl)amino)methyl)-4-(trifluoromethyl)isoindolin-1-one], for which, on c-Cbl, the IC50 came out at 13 nM. In addition, in assay [1], the Fold of selectivity stood at 4.4× and the Kd turned out to be 1 nM. Also, at Cbl-b, inhibition was half-maximal at 13 nM (IC50) and the “fold-selectivity (Cbl-b over C-cbl)” value was determined as 1.0x. On c-Cbl (residues 47-435), the Kd turned out to be 4.4 nM.
For `C=CCNc1cc(N2Cc3c(cc(CNC4(C)CCC4)cc3C(F)(F)F)C2=O)cc([C@]2(c3nncn3C)C[C@@H](OC)C2)c1` [Compound 240, 2-(3-(allylamino)-5-((1s,3s)-3-methoxy-1-(4-methyl-4H-1,2,4-triazol-3-yl)cyclobutyl)phenyl)-6-(((1-methylcyclobutyl)amino)methyl)-4-(trifluoromethyl)isoindolin-1-one], the IC50 against c-Cbl turned out to be 51 nM. In assay [1], the Fold of selectivity is listed as 12× and the Kd was found to be 2.3 nM. At Cbl-b, the IC50 came out at 14 nM and the “fold-selectivity (Cbl-b over C-cbl)” value amounted to 3.7x. The molecule also gave a Kd on c-Cbl (residues 47-435) of 27 nM.
As to `CO[C@H]1C[C@@](c2cc(OC3COC3)cc(N3Cc4c(cc(CNC5(C)CCC5)cc4C(F)(F)F)C3=O)c2)(c2nncn2C)C1` [Compound 241, 2-(3-((1s,3s)-3-methoxy-1-(4-methyl-4H-1,2,4-triazol-3-yl)cyclobutyl)-5-(oxetan-3-yloxy)phenyl)-6-(((1-methylcyclobutyl)amino)methyl)-4-(trifluoromethyl)isoindolin-1-one], the IC50 on c-Cbl came out at 530 nM. In assay [1], this molecule gave a Fold of selectivity of 8.6× and a Kd of 34 nM. On Cbl-b, the IC50 is 130 nM and the “fold-selectivity (Cbl-b over C-cbl)” value worked out at 4.0x. At c-Cbl (residues 47-435), the Kd was found to be 270 nM.
Regarding `CO[C@H]1C[C@](c2cc(OC3COC3)cc(N3Cc4c(cc(CNC5(C)CCC5)cc4C(F)(F)F)C3=O)c2)(c2nncn2C)C1` [Compound 242, 2-(3-((1r,3r)-3-methoxy-1-(4-methyl-4H-1,2,4-triazol-3-yl)cyclobutyl)-5-(oxetan-3-yloxy)phenyl)-6-(((1-methylcyclobutyl)amino)methyl)-4-(trifluoromethyl)isoindolin-1-one], the IC50 on c-Cbl was 220 nM. In assay [1], the Fold of selectivity amounted to 5.5× and the Kd was found to be 23 nM. Besides, at Cbl-b, the IC50 stood at 56 nM and the “fold-selectivity (Cbl-b over C-cbl)” value came to 4.0x. The molecule further gave a Kd on c-Cbl (residues 47-435) of 130 nM.
Turning to `CO[C@H]1C[C@@](c2cc(NC3COC3)cc(N3Cc4c(cc(CNC5(C)CCC5)cc4C(F)(F)F)C3=O)c2)(c2nncn2C)C1` [Compound 243, 2-(3-((1s,3s)-3-methoxy-1-(4-methyl-4H-1,2,4-triazol-3-yl)cyclobutyl)-5-(oxetan-3-ylamino)phenyl)-6-(((1-methylcyclobutyl)amino)methyl)-4-(trifluoromethyl)isoindolin-1-one], the half-maximal inhibitory concentration (IC50) against c-Cbl is 290 nM; on Cbl-b, 64 nM. Also, the Fold of selectivity in assay [1] is reported as 14×. In addition, the results for the Kd (in assay [1]; at c-Cbl (residues 47-435)) were 11 nM and 150 nM, respectively. Besides, the “fold-selectivity (Cbl-b over C-cbl)” value at Cbl-b stood at 4.4x.
